The record followed here is US20260265329A1, “POLYPEPTIDE AND DERIVATIVE THEREOF, COMPOSITION, AND USE THEREOF” (HANGZHOU SCIWIND BIOSCIENCES CO., LTD., priority 2023, published 2026).

For one data set, the target named is T1, human amylin receptors (Homo sapiens, UniProt O60896+P30988).
T1 construct: host or cells: CHO-K1/Ga15/AMY3 cells, further stably transfected with a CRE-luciferase plasmid
T1 sequence (P30988 25-474): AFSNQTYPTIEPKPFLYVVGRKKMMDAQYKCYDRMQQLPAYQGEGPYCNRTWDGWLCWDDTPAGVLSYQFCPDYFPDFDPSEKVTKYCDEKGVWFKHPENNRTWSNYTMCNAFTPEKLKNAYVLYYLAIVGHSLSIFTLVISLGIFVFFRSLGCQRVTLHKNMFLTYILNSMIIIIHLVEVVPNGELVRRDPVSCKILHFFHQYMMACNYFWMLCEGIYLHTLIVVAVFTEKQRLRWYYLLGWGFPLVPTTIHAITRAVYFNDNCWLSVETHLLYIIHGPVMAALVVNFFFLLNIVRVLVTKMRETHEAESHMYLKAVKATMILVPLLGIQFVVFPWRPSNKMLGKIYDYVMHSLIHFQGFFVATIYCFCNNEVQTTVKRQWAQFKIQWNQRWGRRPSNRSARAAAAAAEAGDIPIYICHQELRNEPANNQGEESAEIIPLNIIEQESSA
T1 sequence (O60896 24-148 partner): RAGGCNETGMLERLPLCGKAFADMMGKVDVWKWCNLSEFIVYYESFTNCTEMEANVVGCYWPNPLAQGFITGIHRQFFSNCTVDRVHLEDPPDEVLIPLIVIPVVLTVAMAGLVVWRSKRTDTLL
Kind of data set: Luciferase assay in stably transfected amylin receptor/CRE-luc CHO cell line. Format: cell-based. To be noted: for Relative activity: EC50 ratio of Cagrilintide to the compound, Cagrilintide 100%; for pEC50: amylin receptor/CRE-luc CHO cells, 24 hours incubation, luminescence.

Data set [1] can be described thus: Heat accelerated stability assay, 40° C., detection on 10 d and 20 d. Format: physicochemical. Particulars: 1 mg/mL, pH about 7.4, 40° C. How it is done: The derivatives (1 mg/mL) were mixed with sodium dihydrogen phosphate (1.42 mg/mL) and dissolved in ultrapure water. After adjusting pH to about 7.4 with hydrochloric acid/sodium hydroxide, the solution was filtered into a sterilized vial in a clean bench using a 0.22 μm sterile filter. The vial was then capped and placed into the stability test chamber at 40° C. Detections were made on 10d and 20d, and during the assay changes in the characteristics and properties of the polypeptides were observed and recorded. The sample was then centrifuged for 3 min at 10000 rpm at 4° C., and the supernatant was transferred to a liquid phase sample vial for detecting the concentration and purity of the polypeptides using liquid phase chromatography described as below.
Flow rate: 1.0 mL/min; Autosampler temperature: 25° C.; Column temperature: 25° C.; Detection wavelength: 214 nm; Mobile phase A: 110 mM phosphate buffer (pH 5.8): ACN=90:10; Mobile phase B: ACN: IPA: H2O=85:5:10; and Gradient of elution listed in Table 6: […]

pEC50: −log10 of the molar value. Starred links: 1 amine or outer side, 2 acyl side, 3 side chain; linkers in the order of their positions; H or OH if unused. Non-standard residues stand in square brackets, D forms with d. Residues, ends and D or L forms follow the SMILES beside them. *: point of attachment. C20 diacid = O=C(O)CCCCCCCCCCCCCCCCCCC(=O)*; γGlu = O=C(O)[C@H](CCC(=O)[*:2])N[*:1]; Hyp = O=C(O)[C@@H]1C[C@@H](O)CN1; NMeD = CN[C@@H](CC(=O)O)C(=O)O

Usually pEC50 stands for −log10 of the EC50, conventionally taken in molar units. Read a low pEC50 as a large EC50. Take `CC[C@H](C)[C@H](NC(=O)[C@@H]1CCCN1C(=O)[C@H](CCCCN)NC(=O)[C@H](CC(C)C)NC(=O)[C@H](CC(N)=O)NC(=O)CNC(=O)[C@H](CO)NC(=O)[C@H](CO)NC(=O)[C@H](Cc1c[nH]cn1)NC(=O)[C@H](CCCNC(=N)N)NC(=O)[C@H](CC(C)C)NC(=O)[C@H](Cc1ccccc1)NC(=O)[C@H](CC(=O)O)NC(=O)[C@H](C)NC(=O)[C@H](CC(C)C)NC(=O)[C@H](CCCNC(=N)N)NC(=O)[C@H](CCC(N)=O)NC(=O)[C@@H](NC(=O)[C@H](C)NC(=O)[C@H](C)NC(=O)[C@@H](NC(=O)[C@H](CO)NC(=O)[C@H](CC(C)C)NC(=O)[C@H](CCC(N)=O)NC(=O)[C@H](CO)NC(=O)[C@H](C)NC(=O)CC[C@H](NC(=O)CCCCCCCCCCCCCCCCCCC(=O)O)C(=O)O)[C@@H](C)O)[C@@H](C)O)C(=O)N[C@@H](CC(C)C)C(=O)N1CCC[C@H]1C(=O)N1CCC[C@H]1C(=O)N[C@H](C(=O)N[C@@H](CC(N)=O)C(=O)N[C@H](C(=O)NCC(=O)N[C@@H](CO)C(=O)N[C@@H](CC(N)=O)C(=O)N[C@H](C(=O)N1C[C@H](O)C[C@H]1C(N)=O)[C@@H](C)O)C(C)C)[C@@H](C)O` [M51] ({C20 diacid-γGlu}-ASQLSTAATQRLADFLRHSSGNLKPILPPTNVGSNT[Hyp]-NH2): on human amylin receptors, the Relative activity turned out to be 163% and the pEC50 was 10.10. In addition, in data set [1], the “Reduction in purity, 10 d” value was found to be 23.4% and the “Reduction in purity, 20 d” value amounted to 35.42%.

As for `CC[C@H](C)[C@H](NC(=O)[C@@H]1CCCN1C(=O)[C@H](CCCCN)NC(=O)[C@H](CC(C)C)NC(=O)[C@H](CC(N)=O)NC(=O)[C@H](CCC(=O)O)NC(=O)[C@H](CO)NC(=O)[C@H](CO)NC(=O)[C@H](Cc1c[nH]cn1)NC(=O)[C@H](CCCNC(=N)N)NC(=O)[C@H](CC(C)C)NC(=O)[C@H](Cc1ccccc1)NC(=O)[C@H](CC(=O)O)NC(=O)[C@H](C)NC(=O)[C@H](CC(C)C)NC(=O)[C@H](CCCNC(=N)N)NC(=O)[C@H](CCC(N)=O)NC(=O)[C@@H](NC(=O)[C@H](C)NC(=O)[C@H](C)NC(=O)[C@@H](NC(=O)[C@H](CO)NC(=O)[C@H](CC(C)C)NC(=O)[C@H](CCC(N)=O)NC(=O)[C@H](CO)NC(=O)[C@H](C)NC(=O)CC[C@H](NC(=O)CCCCCCCCCCCCCCCCCCC(=O)O)C(=O)O)[C@@H](C)O)[C@@H](C)O)C(=O)N[C@@H](CC(C)C)C(=O)N1CCC[C@H]1C(=O)N1CCC[C@H]1C(=O)N[C@H](C(=O)N[C@@H](CC(N)=O)C(=O)N[C@H](C(=O)NCC(=O)N[C@@H](CO)C(=O)N[C@@H](CC(N)=O)C(=O)N[C@H](C(=O)N1C[C@H](O)C[C@H]1C(N)=O)[C@@H](C)O)C(C)C)[C@@H](C)O` [M47] ({C20 diacid-γGlu}-ASQLSTAATQRLADFLRHSSENLKPILPPTNVGSNT[Hyp]-NH2), at human amylin receptors, the Relative activity was 113% and the pEC50 is 10.10. Also, in data set [1], the “Reduction in purity, 10 d” value was 9.25%.

Consider `CC[C@H](C)[C@H](NC(=O)[C@@H]1CCCN1C(=O)[C@H](CCCCN)NC(=O)[C@H](CC(C)C)NC(=O)[C@H](CC(N)=O)NC(=O)[C@H](Cc1c[nH]cn1)NC(=O)[C@H](CO)NC(=O)[C@H](CO)NC(=O)[C@H](Cc1c[nH]cn1)NC(=O)[C@H](CCCNC(=N)N)NC(=O)[C@H](CC(C)C)NC(=O)[C@H](Cc1ccccc1)NC(=O)[C@H](CC(=O)O)NC(=O)[C@H](C)NC(=O)[C@H](CC(C)C)NC(=O)[C@H](CCCNC(=N)N)NC(=O)[C@H](CCC(N)=O)NC(=O)[C@@H](NC(=O)[C@H](C)NC(=O)[C@H](C)NC(=O)[C@@H](NC(=O)[C@H](CO)NC(=O)[C@H](CC(C)C)NC(=O)[C@H](CCC(N)=O)NC(=O)[C@H](CO)NC(=O)[C@H](C)NC(=O)CC[C@H](NC(=O)CCCCCCCCCCCCCCCCCCC(=O)O)C(=O)O)[C@@H](C)O)[C@@H](C)O)C(=O)N[C@@H](CC(C)C)C(=O)N1CCC[C@H]1C(=O)N1CCC[C@H]1C(=O)N[C@H](C(=O)N[C@@H](CC(N)=O)C(=O)N[C@H](C(=O)NCC(=O)N[C@@H](CO)C(=O)N[C@@H](CC(N)=O)C(=O)N[C@H](C(=O)N1C[C@H](O)C[C@H]1C(N)=O)[C@@H](C)O)C(C)C)[C@@H](C)O` [M52] ({C20 diacid-γGlu}-ASQLSTAATQRLADFLRHSSHNLKPILPPTNVGSNT[Hyp]-NH2), for which, at human amylin receptors, the Relative activity is 178% and the pEC50 was 10.05. In data set [1], the “Reduction in purity, 10 d” value worked out at 7.91% and the “Reduction in purity, 20 d” value is listed as 15.42%.

In the case of `CC[C@H](C)[C@H](NC(=O)[C@@H]1CCCN1C(=O)[C@H](CCCCN)NC(=O)[C@H](CC(C)C)NC(=O)[C@H](CCC(=O)O)NC(=O)[C@H](CCC(=O)O)NC(=O)[C@H](CO)NC(=O)[C@H](CO)NC(=O)[C@H](Cc1c[nH]cn1)NC(=O)[C@H](CCCNC(=N)N)NC(=O)[C@H](CC(C)C)NC(=O)[C@H](Cc1ccccc1)NC(=O)[C@H](CC(=O)O)NC(=O)[C@H](C)NC(=O)[C@H](CC(C)C)NC(=O)[C@H](CCCNC(=N)N)NC(=O)[C@H](CCC(N)=O)NC(=O)[C@@H](NC(=O)[C@H](C)NC(=O)[C@H](C)NC(=O)[C@@H](NC(=O)[C@H](CO)NC(=O)[C@H](CC(C)C)NC(=O)[C@H](CCC(N)=O)NC(=O)[C@H](CO)NC(=O)[C@H](C)NC(=O)CC[C@H](NC(=O)CCCCCCCCCCCCCCCCCCC(=O)O)C(=O)O)[C@@H](C)O)[C@@H](C)O)C(=O)N[C@@H](CC(C)C)C(=O)N1CCC[C@H]1C(=O)N1CCC[C@H]1C(=O)N[C@H](C(=O)N[C@@H](CC(N)=O)C(=O)N[C@H](C(=O)NCC(=O)N[C@@H](CO)C(=O)N[C@@H](CC(N)=O)C(=O)N[C@H](C(=O)N1C[C@H](O)C[C@H]1C(N)=O)[C@@H](C)O)C(C)C)[C@@H](C)O` [M42] ({C20 diacid-γGlu}-ASQLSTAATQRLADFLRHSSEELKPILPPTNVGSNT[Hyp]-NH2), at human amylin receptors, the Relative activity is reported as 32% and the pEC50 was 9.55. In data set [1], the “Reduction in purity, 10 d” value is recorded as 4.8%.

Regarding `CC[C@H](C)[C@H](NC(=O)[C@@H]1CCCN1C(=O)[C@H](CCCCN)NC(=O)[C@H](CC(C)C)NC(=O)[C@H](CC(=O)O)N(C)C(=O)[C@H](CC(N)=O)NC(=O)[C@H](CO)NC(=O)[C@H](CO)NC(=O)[C@H](Cc1c[nH]cn1)NC(=O)[C@H](CCCNC(=N)N)NC(=O)[C@H](CC(C)C)NC(=O)[C@H](Cc1ccccc1)NC(=O)[C@H](CC(=O)O)NC(=O)[C@H](C)NC(=O)[C@H](CC(C)C)NC(=O)[C@H](CCCNC(=N)N)NC(=O)[C@H](CCC(N)=O)NC(=O)[C@@H](NC(=O)[C@H](C)NC(=O)[C@H](C)NC(=O)[C@@H](NC(=O)[C@H](CO)NC(=O)[C@H](CC(C)C)NC(=O)[C@H](CCC(N)=O)NC(=O)[C@H](CO)NC(=O)[C@H](C)NC(=O)CC[C@H](NC(=O)CCCCCCCCCCCCCCCCCCC(=O)O)C(=O)O)[C@@H](C)O)[C@@H](C)O)C(=O)N[C@@H](CC(C)C)C(=O)N1CCC[C@H]1C(=O)N1CCC[C@H]1C(=O)N[C@H](C(=O)N[C@@H](CC(N)=O)C(=O)N[C@H](C(=O)NCC(=O)N[C@@H](CO)C(=O)N[C@@H](CC(N)=O)C(=O)N[C@H](C(=O)N1C[C@H](O)C[C@H]1C(N)=O)[C@@H](C)O)C(C)C)[C@@H](C)O` [M45] ({C20 diacid-γGlu}-ASQLSTAATQRLADFLRHSSN[NMeD]LKPILPPTNVGSNT[Hyp]-NH2), on human amylin receptors, the Relative activity was found to be 129% and the pEC50 is 10.15. Moreover, the “Reduction in purity, 10 d” value in data set [1] was determined as 6.54%.

`CC[C@H](C)[C@H](NC(=O)[C@@H]1CCCN1C(=O)[C@H](CCCCN)NC(=O)[C@H](CC(C)C)NC(=O)[C@H](CC(N)=O)NC(=O)[C@H](CCCCN)NC(=O)[C@H](CO)NC(=O)[C@H](CO)NC(=O)[C@H](Cc1c[nH]cn1)NC(=O)[C@H](CCCNC(=N)N)NC(=O)[C@H](CC(C)C)NC(=O)[C@H](Cc1ccccc1)NC(=O)[C@H](CC(=O)O)NC(=O)[C@H](C)NC(=O)[C@H](CC(C)C)NC(=O)[C@H](CCCNC(=N)N)NC(=O)[C@H](CCC(N)=O)NC(=O)[C@@H](NC(=O)[C@H](C)NC(=O)[C@H](C)NC(=O)[C@@H](NC(=O)[C@H](CO)NC(=O)[C@H](CC(C)C)NC(=O)[C@H](CCC(N)=O)NC(=O)[C@H](CO)NC(=O)[C@H](C)NC(=O)CC[C@H](NC(=O)CCCCCCCCCCCCCCCCCCC(=O)O)C(=O)O)[C@@H](C)O)[C@@H](C)O)C(=O)N[C@@H](CC(C)C)C(=O)N1CCC[C@H]1C(=O)N1CCC[C@H]1C(=O)N[C@H](C(=O)N[C@@H](CC(N)=O)C(=O)N[C@H](C(=O)NCC(=O)N[C@@H](CO)C(=O)N[C@@H](CC(N)=O)C(=O)N[C@H](C(=O)N1C[C@H](O)C[C@H]1C(N)=O)[C@@H](C)O)C(C)C)[C@@H](C)O` [M53] ({C20 diacid-γGlu}-ASQLSTAATQRLADFLRHSSKNLKPILPPTNVGSNT[Hyp]-NH2): on human amylin receptors, the Relative activity is recorded as 200% and the pEC50 was 10.10. Besides, in data set [1], the “Reduction in purity, 10 d” value was determined as 11.82% and the “Reduction in purity, 20 d” value is given as 19.98%.
